The values that follow are results of earlier work, collected in patent publication US9675585B1, “Extended release pharmaceutical formulations” (Ezra Pharma, priority 2016, dated 2017).

The term Tmax denotes the time from dosing to the highest level.

With `CCCCC(=O)N(Cc1ccc(-c2ccccc2-c2nnn[nH]2)cc1)[C@H](C(=O)O)C(C)C` [valsartan], the “time after which plasma concentration reaches very low level” value (following Cmax) is 10 to 12 h. Further, the Tmax (oral administration) was 2 to 4 h.
